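The compound was tested at five concentrations on cells cultured in 96-well plates, with a 48-hour exposure period. TGI: total growth inhibition.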
Assays:
Assay in all cases: inhibition of tumour cell growth, NCI panel, 48 h
[1] = system: BT-549 breast
[2] = system: HCC-2998 colon
[3] = system: OVCAR-5 ovarian
[4] = system: SK-MEL-28 melanoma
[5] = system: A498 renal
[6] = system: SNB-19 CNS
[7] = system: SF-295 CNS
[8] = system: MOLT-4 leukemia
[9] = system: OVCAR-8 ovarian
[10] = system: OVCAR-3 ovarian
[11] = system: UACC-257 melanoma
[12] = system: LOX IMVI melanoma
[13] = system: CAKI-1 renal
[14] = system: 786-0 renal
[15] = system: COLO 205 colon
[16] = system: U251 CNS
[17] = system: MDA-MB-231 breast
[18] = system: RPMI-8226 leukemia
[19] = system: SN12C renal
[20] = system: K-562 leukemia
[21] = system: MALME-3M melanoma
[22] = system: NCI/ADR-RES ovarian
[23] = system: ACHN renal
[24] = system: EKVX NSCLC
[25] = system: A549 NSCLC
[26] = system: NCI-H226 lung
[27] = system: HT29 colon
[28] = system: M14 melanoma
[29] = system: TK-10 renal
[30] = system: HOP-92 NSCLC
[31] = system: UO-31 renal
[32] = system: SR leukemia
[33] = system: DU-145 prostate
[34] = system: NCI-H522 lung
[35] = system: MDA-MB-435
[36] = system: HOP-62 NSCLC
[37] = system: IGROV1 ovarian
[38] = system: UACC-62 melanoma
[39] = system: SF-539 CNS
[40] = system: OVCAR-4 ovarian
[41] = system: PC-3 prostate
[42] = system: SF-268 CNS
[43] = system: MCF7 breast
[44] = system: HS 578T breast
[45] = system: RXF 393 renal
[46] = system: SW-620 colon
[47] = system: KM12 colon
[48] = system: SK-MEL-5 melanoma
[49] = system: NCI-H460 lung
[50] = system: NCI-H23 lung
[51] = system: HCT-15 colon
[52] = system: MDA-N
[53] = system: CCRF-CEM leukemia
[54] = system: SK-MEL-2 melanoma
[55] = system: HCT-116 colon
[56] = system: HL-60(TB) leukemia
[57] = system: SNB-75 CNS
[58] = system: SK-OV-3 ovarian

Question: How did the TGI [1] turn out when `CC(=O)Oc1ccc(/C=C/C(=O)NCC(NC(=O)/C=C/c2ccc(OC(C)=O)c(OC(C)=O)c2)C(=O)O)cc1OC(C)=O` (stereo not given) was run?
Answer: > 100 µM

Question: And the TGI [2]?
Answer: > 100 µM

Question: What about the TGI [3] of the same compound?
Answer: > 100 µM

Question: And the TGI [4]?
Answer: > 100 µM

Question: What about the TGI [5] of the same compound?
Answer: > 100 µM

Question: What about the TGI [6] of the same compound?
Answer: > 100 µM

Question: And the TGI [7]?
Answer: > 100 µM

Question: And the TGI [8]?
Answer: 50.1 µM

Question: What about the TGI [9] of the same compound?
Answer: > 100 µM

Question: What about the TGI [10] of the same compound?
Answer: > 100 µM

Question: What about the TGI [11] of the same compound?
Answer: > 100 µM

Question: What about the TGI [12] of the same compound?
Answer: > 100 µM

Question: And the TGI [13]?
Answer: > 100 µM

Question: And the TGI [14]?
Answer: > 100 µM

Question: What about the TGI [15] of the same compound?
Answer: > 100 µM

Question: And the TGI [16]?
Answer: > 100 µM

Question: And the TGI [17]?
Answer: > 100 µM

Question: What about the TGI [18] of the same compound?
Answer: > 100 µM

Question: And the TGI [19]?
Answer: > 100 µM

Question: What about the TGI [20] of the same compound?
Answer: > 100 µM

Question: What about the TGI [21] of the same compound?
Answer: > 100 µM

Question: What about the TGI [22] of the same compound?
Answer: > 100 µM

Question: What about the TGI [23] of the same compound?
Answer: > 100 µM

Question: And the TGI [24]?
Answer: > 100 µM

Question: And the TGI [25]?
Answer: > 100 µM

Question: What about the TGI [26] of the same compound?
Answer: > 100 µM

Question: And the TGI [27]?
Answer: > 100 µM

Question: And the TGI [28]?
Answer: > 100 µM

Question: What about the TGI [29] of the same compound?
Answer: > 100 µM

Question: And the TGI [30]?
Answer: > 100 µM

Question: What about the TGI [31] of the same compound?
Answer: > 100 µM

Question: And the TGI [32]?
Answer: > 100 µM

Question: And the TGI [33]?
Answer: > 100 µM

Question: What about the TGI [34] of the same compound?
Answer: > 100 µM

Question: And the TGI [35]?
Answer: > 100 µM

Question: And the TGI [36]?
Answer: > 100 µM

Question: And the TGI [37]?
Answer: > 100 µM

Question: And the TGI [38]?
Answer: > 100 µM

Question: What about the TGI [39] of the same compound?
Answer: > 100 µM

Question: And the TGI [40]?
Answer: > 100 µM

Question: What about the TGI [41] of the same compound?
Answer: > 100 µM

Question: And the TGI [42]?
Answer: > 100 µM

Question: And the TGI [43]?
Answer: > 100 µM

Question: What about the TGI [44] of the same compound?
Answer: > 100 µM

Question: And the TGI [45]?
Answer: > 100 µM

Question: And the TGI [46]?
Answer: > 100 µM

Question: And the TGI [47]?
Answer: > 100 µM

Question: And the TGI [48]?
Answer: > 100 µM

Question: What about the TGI [49] of the same compound?
Answer: > 100 µM

Question: What about the TGI [50] of the same compound?
Answer: > 100 µM

Question: What about the TGI [51] of the same compound?
Answer: > 100 µM

Question: What about the TGI [52] of the same compound?
Answer: > 100 µM

Question: And the TGI [53]?
Answer: > 100 µM

Question: And the TGI [54]?
Answer: > 100 µM

Question: And the TGI [55]?
Answer: > 100 µM

Question: Which TGI [1] does the source give for `CCOC(=O)N1CCN(c2ccc3ccc(N)nc3n2)CC1` here?
Answer: > 100 µM

Question: And the TGI [2]?
Answer: > 100 µM

Question: What about the TGI [3] of the same compound?
Answer: > 100 µM

Question: What about the TGI [4] of the same compound?
Answer: > 100 µM

Question: What about the TGI [6] of the same compound?
Answer: > 100 µM

Question: What about the TGI [7] of the same compound?
Answer: > 100 µM

Question: What about the TGI [8] of the same compound?
Answer: > 100 µM

Question: And the TGI [9]?
Answer: > 100 µM

Question: What about the TGI [10] of the same compound?
Answer: > 100 µM

Question: What about the TGI [56] of the same compound?
Answer: > 100 µM

Question: And the TGI [11]?
Answer: > 100 µM

Question: And the TGI [12]?
Answer: > 100 µM

Question: What about the TGI [13] of the same compound?
Answer: > 100 µM

Question: What about the TGI [14] of the same compound?
Answer: > 100 µM

Question: And the TGI [57]?
Answer: > 100 µM

Question: And the TGI [15]?
Answer: > 100 µM

Question: And the TGI [16]?
Answer: > 100 µM

Question: What about the TGI [17] of the same compound?
Answer: > 100 µM

Question: And the TGI [18]?
Answer: > 100 µM

Question: What about the TGI [19] of the same compound?
Answer: > 100 µM

Question: What about the TGI [20] of the same compound?
Answer: > 100 µM

Question: What about the TGI [21] of the same compound?
Answer: > 100 µM

Question: What about the TGI [22] of the same compound?
Answer: > 100 µM

Question: What about the TGI [23] of the same compound?
Answer: > 100 µM

Question: What about the TGI [24] of the same compound?
Answer: > 100 µM

Question: What about the TGI [25] of the same compound?
Answer: > 100 µM

Question: And the TGI [26]?
Answer: > 100 µM

Question: What about the TGI [27] of the same compound?
Answer: > 100 µM

Question: And the TGI [28]?
Answer: > 100 µM

Question: And the TGI [29]?
Answer: > 100 µM

Question: And the TGI [30]?
Answer: > 100 µM

Question: And the TGI [31]?
Answer: > 100 µM

Question: And the TGI [32]?
Answer: > 100 µM

Question: And the TGI [33]?
Answer: > 100 µM

Question: What about the TGI [34] of the same compound?
Answer: > 100 µM

Question: And the TGI [35]?
Answer: > 100 µM

Question: And the TGI [58]?
Answer: > 100 µM

Question: What about the TGI [36] of the same compound?
Answer: > 100 µM

Question: What about the TGI [37] of the same compound?
Answer: > 100 µM

Question: What about the TGI [38] of the same compound?
Answer: > 100 µM

Question: And the TGI [39]?
Answer: > 100 µM

Question: What about the TGI [40] of the same compound?
Answer: > 100 µM

Question: And the TGI [41]?
Answer: > 100 µM

Question: What about the TGI [42] of the same compound?
Answer: > 100 µM

Question: And the TGI [43]?
Answer: > 100 µM

Question: What about the TGI [44] of the same compound?
Answer: > 100 µM

Question: What about the TGI [46] of the same compound?
Answer: > 100 µM

Question: What about the TGI [47] of the same compound?
Answer: > 100 µM

Question: And the TGI [49]?
Answer: > 100 µM

Question: What about the TGI [50] of the same compound?
Answer: > 100 µM

Question: And the TGI [51]?
Answer: > 100 µM

Question: And the TGI [52]?
Answer: > 100 µM

Question: What about the TGI [53] of the same compound?
Answer: > 100 µM

Question: What about the TGI [54] of the same compound?
Answer: > 100 µM

Question: And the TGI [55]?
Answer: > 100 µM
